Measurements taken from publication PMC12109561, “LPS2336, a New TREK-1 Channel Activator Identified by High Throughput Screening” (Biomolecules, 2025).
Like-named read-outs stand apart in the source and are kept apart here.

Assays:
hTREK-1 [1] = target: T1, hTREK-1 (Homo sapiens, UniProt O95069)
T1 sequence (O95069 1-422 isoform O95069-3): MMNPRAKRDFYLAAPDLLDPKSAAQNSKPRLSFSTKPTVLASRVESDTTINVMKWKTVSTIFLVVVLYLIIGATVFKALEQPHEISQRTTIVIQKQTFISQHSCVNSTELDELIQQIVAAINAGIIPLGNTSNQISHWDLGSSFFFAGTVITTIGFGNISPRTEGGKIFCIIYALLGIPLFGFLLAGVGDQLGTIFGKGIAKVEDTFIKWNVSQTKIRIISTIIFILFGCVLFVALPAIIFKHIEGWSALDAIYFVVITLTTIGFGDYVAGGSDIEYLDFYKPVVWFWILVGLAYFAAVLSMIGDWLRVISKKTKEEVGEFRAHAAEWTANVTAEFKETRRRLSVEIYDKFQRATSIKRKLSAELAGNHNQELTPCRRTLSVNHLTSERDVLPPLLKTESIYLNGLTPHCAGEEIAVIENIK

naive HEK293 cells = assay: Thallium flux assay on naive (untransfected) HEK293 cells; conditions: 10 µM
Experimental: Cells were plated in 384-well plates with black walls and clear bottom coated with poly-D-lysine (Greiner Bio-One, Kremsmünster, Austria, #781946) at a density of 25 000 cells/well from a 1 250 000 cells/mL solution. Cell counting was performed with an automatic cell counter (Countness II FL, ThermoFisher, Waltham, MA, USA) with addition of trypan blue 0.2% to exclude dead cells. 24 h after plating, cells were incubated with FluxOR II green probe (ThermoFisher) for 1 h in the dark, accordingly to the supplier’s protocol (‘no wash’ procedure) with addition of 77 mg/mL probenecide. […] Fluorescence was measured every 3 s during 1 min (excitation 485 nm, emission 515 nm), and 0.5 mM thallium was added to the wells after a 20 s baseline. […] Fluorescence is normalized using the formula (F − F0)/F0 where F0 is the average fluorescence during the first 18 s of the recording. ΔFmax/F0 is calculated between 18 and 33 s (−2 to 13 s relative to thallium addition). For dose–response curves, ΔFmax/F0 are expressed as %vehicle (100% corresponding to the average ΔFmax/F0 measured in vehicle-treated wells). For high throughput screening, Z scores were calculated as(1) Z=Xsample−X¯neg/σneg where X represents ΔFmax/F0 and σ the ΔFmax/F0 standard deviation. ‘neg’ represents negative controls (vehicle-treated wells). […]

hTREK-1 [2] = target: T1, hTREK-1; assay: Whole cell patch clamp on HEK-hTREK-1 cells; format: cell-based; set-up: transfected with the human Kcnk2 (NM_001017424) or Kcnk10 (NM_021161) ORF cloned in a pEZ-M02 expression vector
hTREK-1 [3] = target: T1, hTREK-1; assay: cell-based
CD1 mice [4] = assay: Hargreaves test in carrageenan-induced paw inflammation; format: in vivo, mouse
CD1 mice [5] = assay: Open field test in CD1 mice; format: in vivo, mouse; conditions: i.p., 15 min before open field test
Experimental: (§1) Mice were placed in the center of a 50 × 50 cm arena with 45 cm high walls. Animals were filmed for 10 min and the distance traveled was measured using video-tracking software (Viewpoint Videotrack 5.13.0.10).
To search for possible adverse effects induced by LPS2336 in vivo, we submitted CD1 mice to different confounding tests aiming at characterizing motor coordination, balance, muscle strength and spontaneous locomotor activity. […] To assess the contribution of TREK-1 to this adverse effect, we submitted TREK-1 knock-out mice (which are of the C57Bl6/J background) to the same test, 15 min following the injection of 50 mg/kg LPS2336. […] We finally submitted the mice to a third test consisting in observing their spontaneous locomotion in an open arena (open field test). […] Finally, we monitored the body temperature of mice for 45 min after intraperitoneal injection of LPS2336 at 40 mg/kg and could observe hypothermia in both WT and TREK-1 KO (−2.4 and −2.6 °C, respectively) following LPS2336 treatment (Figure 7F,G).

[6] = system: WT and TREK-1 KO littermates of C57Bl6/J background; assay: Body temperature monitoring (rectal probe); format: in vivo, mouse; conditions: i.p. 40 mg/kg, 15 min after injection minus before
Description: (§2) TREK-1^−/− mice were generated by crossing mice carrying an allele of the Kcnk2 gene in which exon 3 was floxed (RRID:MGI:3050295) with ZP3-Cre mice (RRID:MGI:3835429), both in C57Bl6/J background. F1 females, producing TREK-1^+/− oocytes, were crossed with WT males. TREK-1^+/− F2 offspring not carrying the ZP3-Cre transgene were finally crossed together to generate TREK-1^−/− and TREK-1^+/+ littermates, which were weaned in separate cages after genotyping using 2 mm tail samples taken at 10 days of age. Animals were identified by digital tattoos at 3 weeks of age.
Body temperature was measured using a rectal probe in awake animals before and 15, 30 and 45 min after injection of LPS2336.
To search for possible adverse effects induced by LPS2336 in vivo, we submitted CD1 mice to different confounding tests aiming at characterizing motor coordination, balance, muscle strength and spontaneous locomotor activity. […] To assess the contribution of TREK-1 to this adverse effect, we submitted TREK-1 knock-out mice (which are of the C57Bl6/J background) to the same test, 15 min following the injection of 50 mg/kg LPS2336. […] Finally, we monitored the body temperature of mice for 45 min after intraperitoneal injection of LPS2336 at 40 mg/kg and could observe hypothermia in both WT and TREK-1 KO (−2.4 and −2.6 °C, respectively) following LPS2336 treatment (Figure 7F,G).

[7] = system: WT and TREK-1 KO littermates of C57Bl6/J background; assay: Open field test in WT and TREK-1 KO littermates; format: in vivo, mouse; conditions: i.p. 50 mg/kg
Description: as §2, §1
(§3) To search for possible adverse effects induced by LPS2336 in vivo, we submitted CD1 mice to different confounding tests aiming at characterizing motor coordination, balance, muscle strength and spontaneous locomotor activity. […] Finally, we monitored the body temperature of mice for 45 min after intraperitoneal injection of LPS2336 at 40 mg/kg and could observe hypothermia in both WT and TREK-1 KO (−2.4 and −2.6 °C, respectively) following LPS2336 treatment (Figure 7F,G).

[8] = system: WT and TREK-1 KO littermates of C57Bl6/J background; assay: Horizontal bar test in WT and TREK-1 KO littermates; format: in vivo, mouse; conditions: i.p. 50 mg/kg, 15 min
Description: as §2
A 13 cm long, 2 mm diameter metal bar was placed horizontally between 2 rods at a 30 cm height. […] After gently releasing the tail, the time taken by mice to climb on the bar (grabbing it with their four paws) was monitored.
as §3

[9] = 50 µM, HEK-hTREK-1 cells, vs vehicle

N#CCCN1CCC(Cc2ccccc2)CC1 [2a]
TREK-1 activation by analogs (hTREK-1 [1]): profound decrease in TREK-1 activation

CC1CCN(CC#N)CC1 [2b]
TREK-1 activation by analogs (hTREK-1 [1]): loss of TREK-1 activation

CCC#CCN1CCC(Cc2ccccc2)CC1 [2c]
TREK-1 activation by analogs (hTREK-1 [1]): profound decrease in TREK-1 activation

N#CCN1CCCCC1 [2d]
TREK-1 activation by analogs (hTREK-1 [1]): loss of TREK-1 activation

N#CCCCN1CCC(Cc2ccccc2)CC1 [2e]
TREK-1 activation by analogs (hTREK-1 [1]): profound decrease in TREK-1 activation

c1ccc(CC2CCN(Cc3ccccc3)CC2)cc1 [2f]
TREK-1 activation by analogs (hTREK-1 [1]): profound decrease in TREK-1 activation

CCCCN1CCC(Cc2ccccc2)CC1 [2g]
TREK-1 activation by analogs (hTREK-1 [1]): profound decrease in TREK-1 activation

CCOC(=O)CN1CCC(Cc2ccccc2)CC1 [2h]
TREK-1 activation by analogs (hTREK-1 [1]): severely impacted TREK-1 activation ability

O=C(O)CN1CCC(Cc2ccccc2)CC1 [2i]
TREK-1 activation by analogs (hTREK-1 [1]): severely impacted TREK-1 activation ability

NCCN1CCC(Cc2ccccc2)CC1 [2j]
TREK-1 activation by analogs (hTREK-1 [1]): severely impacted TREK-1 activation ability

NC(=O)CN1CCC(Cc2ccccc2)CC1 [2k]
TREK-1 activation by analogs (hTREK-1 [1]): severely impacted TREK-1 activation ability

c1ccc(-c2nn[nH]n2)c(Nc2cccc3c2CCCC3)c1 [BL-1249, reference compound]
concentrations at which active on TREK-1 (hTREK-1 [1]): active at sub-micromolar concentrations
toxicity to HEK-hTREK-1 cells (hTREK-1 [1]; 100 µM): visible cell death
effect on fluorescence in naive cells (naive HEK293 cells): no effect

Nc1ccc(Oc2ccc(C(c3ccc(Oc4ccc(N)cc4)cc3)(C(F)(F)F)C(F)(F)F)cc2)cc1 [GI-530159]
increase of mean current density recorded at 0 mV (hTREK-1 [2]; [9]): 9.73 fold

N#CCN1CCC(Cc2ccccc2)CC1 [LPS2336]
EC50 (hTREK-1 [3]): 11.8 µM
dose able to reverse the pain phenotype (CD1 mice [4]; intracerebroventricular, effect similar to 1 µg morphine): 100 µg
dose at which the analgesic effect reaches a plateau (CD1 mice [4]; intraperitoneal): 20 mg/kg
time of peak analgesia after injection (CD1 mice [4]; intraperitoneal): 15 min
dose from which pain thresholds are increased (CD1 mice [4]; intraperitoneal, carrageenan-injected CD1 mice): ≥ 20 mg/kg
effect on pain thresholds at the highest intrathecal dose (CD1 mice [4]; intrathecal, 300 µg (1400 nmol)): slight, non-significant effect
pain relief after intrathecal administration (CD1 mice [4]; intrathecal, doses up to 300 µg): not effective
dose from which spontaneous locomotion is decreased (CD1 mice [5]): ≥ 30 mg/kg
average Z score in high throughput screening (hTREK-1 [1]): 3.50 ± 0.24
times over the positivity threshold (hTREK-1 [1]): 3/3
change in body temperature (hypothermia), WT mice ([6]; C57Bl6/J WT): −2.4 °C
change in body temperature (hypothermia), TREK-1 KO mice ([6]; TREK-1 KO): −2.6 °C
open field test, WT vs TREK-1 KO [7]: no difference between WT and TREK-1 KO mice
spontaneous locomotion in C57Bl6/J mice [7]: same adverse effect as CD1 mice
increase of mean current density recorded at 0 mV (hTREK-1 [2]): 10.77 fold
horizontal bar test, WT vs TREK-1 KO [8]: no difference between WT and TREK-1 KO mice
time to climb on horizontal bar in WT littermates ([8]; C57Bl6/J WT): same increase in time to climb

O=C(NCCCCN1CCN(Cc2ccccc2)CC1)c1ccc2ccccc2c1 [LPS6257]
change in ΔFmax/F0 compared to the vehicle condition (hTREK-1 [1]): −70%

CS(=O)(=O)Nc1ccc(C(=O)NCc2ccc(Cl)cc2Cl)cc1 [ML335, reference compound]
increase in ΔFmax/F0 (hTREK-1 [1]): 2.60 fold
effect of salification on TREK-1 activation (hTREK-1 [1]; 100 µM): increased TREK-1 activation
EC50 (hTREK-1 [1]; read-out: EC50 (TREK-1 activation, thallium assay)): 6.7 µM
increase of mean current density recorded at 0 mV (hTREK-1 [2]; [9]): 13.35 fold

Cc1cc(Cl)ccc1OCCNC(=O)c1cccs1 [ML402, reference compound]
effect of salification on TREK-1 activation (hTREK-1 [1]; 100 µM): increased TREK-1 activation

CNCCC(Oc1ccc(C(F)(F)F)cc1)c1ccccc1 (centres unmarked) [fluoxetine, reference compound]
TREK-1 activation (ΔFmax/F0) (hTREK-1 [1]): 54 % of vehicle

CN1CC[C@]23c4c5ccc(O)c4O[C@H]2[C@@H](O)C=C[C@H]3[C@H]1C5 [morphine, reference compound]
analgesia after intracerebroventricular administration (CD1 mice [4]; intracerebroventricular, 1 µg (3.5 nmol)): analgesic
analgesia after intrathecal administration (CD1 mice [4]; intrathecal, 3 µg (10.5 nmol)): long-lasting analgesia
